According to US20240166631A1, “COMPOUND, METHOD FOR PRODUCING AND METHOD FOR STORING COMPOUND, METHOD FOR PRODUCING TARGETING AGENT, AND COMPOSITION” (NIHON MEDI-PHYSICS CO., LTD, priority 2021, published 2024):
Blank lines part the entries; values can stand above or below the compound they belong to.

Assay: Evaluation of storage stability: purity of stored solid DOTAGA-DBCO by HPLC area percentage
Assay type: physicochemical
Conditions: for long-term storage stability (in words): refrigerating or freezing conditions, after 6 months storage
Experimental: Thereafter, the brown vial containing DOTAGA-DBCO was placed under each of the conditions: room temperature (Example 1: 21 to 25° C.); high temperature (Example 2: 40° C.); refrigerating (Example 3: 5° C.); and freezing (Example 4: -20° C.), and stored for a predetermined period.
Thereafter, the colorless transparent glass vial containing DOTAGA-DBCO was placed under the condition of room temperature (Example 5: 19 to 23° C.) and stored for a predetermined period.
Subsequently, DOTAGA-DBCO obtained by drying in the same manner as in Examples 1 to 4 was put in a brown vial, and the brown vial was placed under each of the conditions: room temperature (Comparative Example 1: 21 to 25° C.); and high temperature (Comparative Example 2: 40° C.), and stored for a predetermined period.
For DOTAGA-DBCOs in each of Examples and Comparative Examples, the purity was measured by the following measurement method at each time point: at the start of storage, after 7 days storage, after 1 month storage, after 3 months storage, and after 6 months storage. The smaller deterioration in purity with respect to the purity at the start of storage, the more excellent the storage stability.
1.0 mg of the objective compound was precisely weighed. For Examples 1 and 2 and Comparative Examples 1 and 2, a mixture of 10 mmol/L ammonium formate solution (pH 3.0)/acetonitrile for liquid chromatography (95:5) was added to make an exactly 10 mL sample solution. For Examples 3 and 4, a mixture of 10 mmol/L ammonium formate solution (pH 3.0)/methanol for liquid chromatography (95:5) was added to make an exactly 10 mL sample solution. For Example 5, methanol for liquid chromatography was added to make an exactly 10 mL sample solution.
For 10 μL of each of these sample solutions, high performance liquid chromatography measurement was conducted under the following conditions. The peak area of the sample solution was measured with automatic integration method, and the amount of these compounds was determined through area percentage method. Each sample solution was prepared one time and measured 3 times. The arithmetic average value of the three measurement results was defined as purity (%). Note that, at the start of storage, each sample solution was prepared and measured one time, respectively.
• Detector (1): ultraviolet absorptiometer (measurement wavelength: 290 nm, 308 nm) • Detector (2): ACQ-QDa (Positive scan: cone voltage 15 V, capillary voltage 0.8 V; Negative scan: cone voltage 15 V, capillary voltage 0.8 V, scanning range: m/z 50 to 1200) • Column: a stainless steel tube having an inner diameter of 4.6 mm and a length of 10 cm, packed with 3.5 μm octadecylsilylated silica gel for liquid chromatography (XBridge C18) • Column temperature: maintained at a constant temperature of about 25° C.
• Mobile phase: (Mobile phase A) 10 mmol/L ammonium formate solution (pH 3.0) and (Mobile phase B) acetonitrile were used for liquid feeding while controlling the concentration gradient (vol %) in the order of the following (i) to (v). The flow rate of each mobile phase was 1 mL/min.

[1] = storage conditions: room temperature
[2] = stored at 5° C. (refrigerating)

SMILES: O=C(O)CN1CCN(CC(=O)O)CCN(C(CCC(=O)NCCC(=O)N2Cc3ccccc3C#Cc3ccccc32)C(=O)O)CCN(CC(=O)O)CC1 (stereo not shown) [Example 2, DOTAGA-DBCO]
Purity (%) of compound at storage start (storage conditions: 40° C.): 97.6% | Purity (%) of compound after 1 month (stored at 40° C.): 96.7% | Purity (%) of compound after 3 months (stored at 40° C.): 93.9% | Purity (%) of compound after 6 months (stored at 40° C.): 92.0% | Purity (%) of compound after 7 days (stored at 40° C.): 96.9%

SMILES: O=C(O)CN1CCN(CC(=O)O)CCN(C(CCC(=O)NCCC(=O)N2Cc3ccccc3C#Cc3ccccc32)C(=O)O)CCN(CC(=O)O)CC1 (stereo not shown) [Comparative Example 1, DOTAGA-DBCO]
Purity (%) of compound at storage start [1]: 96.4% | Purity (%) of compound after 1 month (stored at room temperature): 90.9% | Purity (%) of compound after 7 days (stored at room temperature): 95.5%

SMILES: O=C(O)CN1CCN(CC(=O)O)CCN(C(CCC(=O)NCCC(=O)N2Cc3ccccc3C#Cc3ccccc32)C(=O)O)CCN(CC(=O)O)CC1 (stereo not shown) [Example 3, DOTAGA-DBCO]
long-term storage stability (in words): purity at the start of storage is maintained even after 6 months storage | Purity (%) of compound at storage start (storage conditions: 5° C. (refrigerating)): 96.9% | Purity (%) of compound after 1 month [2]: 97.0% | Purity (%) of compound after 3 months [2]: 93.2% | Purity (%) of compound after 6 months [2]: 96.8% | Purity (%) of compound after 7 days [2]: 97.4%

The next lines start with results.

Purity (%) of compound at storage start [1]: 97.6% | Purity (%) of compound after 1 month (stored at room temperature): 96.9% | Purity (%) of compound after 3 months (stored at room temperature): 95.7% | Purity (%) of compound after 6 months (stored at room temperature): 93.6% | Purity (%) of compound after 7 days (stored at room temperature): 97.1%
SMILES: O=C(O)CN1CCN(CC(=O)O)CCN(C(CCC(=O)NCCC(=O)N2Cc3ccccc3C#Cc3ccccc32)C(=O)O)CCN(CC(=O)O)CC1 (stereo not shown) [Example 1, DOTAGA-DBCO]

Purity (%) of compound at storage start [1]: 97.5% | Purity (%) of compound after 1 month (stored at room temperature): 96.0% | Purity (%) of compound after 7 days (stored at room temperature): 97.2%
SMILES: O=C(O)CN1CCN(CC(=O)O)CCN(C(CCC(=O)NCCC(=O)N2Cc3ccccc3C#Cc3ccccc32)C(=O)O)CCN(CC(=O)O)CC1 (stereo not shown) [Example 5, DOTAGA-DBCO]

Purity (%) of compound at storage start (storage conditions: 40° C.): 96.4% | Purity (%) of compound after 1 month (stored at 40° C.): 52.2% | Purity (%) of compound after 7 days (stored at 40° C.): 86.1%
SMILES: O=C(O)CN1CCN(CC(=O)O)CCN(C(CCC(=O)NCCC(=O)N2Cc3ccccc3C#Cc3ccccc32)C(=O)O)CCN(CC(=O)O)CC1 (stereo not shown) [Comparative Example 2, DOTAGA-DBCO]

Purity (%) of compound at storage start (storage conditions: −20° C. (freezing)): 96.9% | Purity (%) of compound after 1 month (stored at −20° C. (freezing)): 97.6% | Purity (%) of compound after 3 months (stored at −20° C. (freezing)): 93.5% | Purity (%) of compound after 6 months (stored at −20° C. (freezing)): 95.5% | Purity (%) of compound after 7 days (stored at −20° C. (freezing)): 97.4%
SMILES: O=C(O)CN1CCN(CC(=O)O)CCN(C(CCC(=O)NCCC(=O)N2Cc3ccccc3C#Cc3ccccc32)C(=O)O)CCN(CC(=O)O)CC1 (stereo not shown) [Example 4, DOTAGA-DBCO]
long-term storage stability (in words): purity at the start of storage is maintained even after 6 months storage
